From PMC3502156, “Anti-plasmodial action of de novo-designed, cationic, lysine-branched, amphipathic, helical peptides” (Malaria Journal, 2012)
Where two headings read alike, the source gives them in different places. Starred links: 1 amine or outer side, 2 acyl side, 3 side chain; linkers in the order of their positions; H or OH if unused. Positions of bridges follow the written chain, without caps; N, C: chain ends. Non-standard residues stand in square brackets, D forms with d. Residues, ends and D or L forms follow the SMILES beside them. Chains are numbered I, II in the order given. X1 = O=C(/C(=C/c1ccccc1)N[*:1])[*:2]; X2 = O=C(C(=Cc1ccccc1)N[*:1])[*:2]

Key:
[1] = test system: P. falciparum 3D7 (chloroquine-sensitive); test: microbe, parasite or virus in culture; type: cell-based, Plasmodium falciparum
Method: (§1) Chloroquine-sensitive (3D7) and CQ-resistant (Dd2 and INDO) strains of P. falciparum were maintained in continuous culture according to the method of Trager and Jensen with minor modifications. Cultures were maintained in fresh group O^+ve human erythrocytes suspended at 4% haematocrit in complete medium {16.2 g/L RPMI 1640 containing 25 mM HEPES, 11.11 mM glucose (Gibco), 0.2% sodium bicarbonate (Sigma), 0.5% Albumax I (Gibco), 45 μg/litre hypoxanthine (Sigma) and 50 μg/litre gentamicin (Gibco)} and incubated at 37°C under a gas mixture 5% O2, 5% CO2, and 90% N2. Every day, the spent medium was replaced by fresh complete medium to propagate the culture. […] Parasitaemia was monitored by microscopic examination of Giemsa-stained blood smears. Synchronized ring stage parasite was obtained by 5% sorbitol treatment. Trophozoites and schizont-stage parasites were enriched by using Percoll gradient.
(§2) Stock solutions of peptides and CQ were prepared in water (milli-Q grade) while artemisinin stock solution was in dimethyl sulphoxide (DMSO). All stocks were then diluted with culture medium to achieve the required drug concentrations. The concentration of peptide solution in water was based on A280 [ϵ (M^-1 cm^-1) ΔF (didehydrophenylalanine) 19,000, W (Tryptophan) 5,000)]. Thus ϵ280 were 62,000, 124,000, 124,000 and 248,000 for ΔFm, (ΔFm)2, ΔFd and ΔFq respectively. The concentration of FITC-peptides was based on A495 [ϵ(M^-1 cm^-1) FITC 77,000 for (ΔFm)2 with one FITC and 154,000 for ΔFd with two FITC per molecule]. Drugs and peptides solutions were placed in 96-well flat bottom tissue culture grade plates (Corning).
(§3) For drug screening, SYBR green I based fluorescence assay was used as described previously by Smilkstein et al.[30]. Sorbitol synchronized ring stage parasites (haematocrit: 2%, parasitaemia: 1%, 100 μl) under normal culture conditions were incubated in the absence or presence of increasing concentrations of peptides in water. CQ and artemisinin were used as positive controls. […] After 48 hr of incubation 100 μl of SYBR Green I buffer [0.2 μl of 10,000 X SYBR Green I (Invitrogen) per ml of lysis buffer {Tris (20 mM; pH 7.5), EDTA (5 mM), saponin (0.008%; wt/vol), and Triton X-100 (0.08%; vol/vol)}] was added to each well, mixed twice gently with multi-channel pipette and incubated in dark at 37 °C for 1 h. Fluorescence was measured with a Victor fluorescence multi-well plate reader (Perkin Elmer) with excitation and emission wavelength centred at 485 and 530 nm, respectively. Fluorescence counts for CQ (0.1 μM for 3D7, 1 μM for INDO) were subtracted from counts in each well. The fluorescence counts were plotted against the drug concentration and IC50 (the 50% inhibitory concentration) was determined by analysis of dose–response curves. Results of the above mentioned fluorescence-based assay were validated microscopically by examination of Giemsa-stained smears of peptide-treated parasite cultures. Statistical significance of relative potencies of peptides was determined by student’s T test.

[2] = test system: uninfected erythrocytes (URBC); test: Haemolysis assay, uninfected red cells; type: cell-based, human
Method: (§4) Selectivity of haemolysis by peptides for infected erythrocytes (PRBC) vs uninfected erythrocytes (URBC) was examined by incubating the test molecules with URBCs and PRBCs respectively in phosphate-buffered saline (PBS). Briefly, fresh RBCs were spin washed (1600 RPM; 5 min) three times in PBS and re-suspended in PBS at 2% haematocrit. A 100 μl suspension was added to 96-well plate containing the peptides at different concentrations. […] After incubation at 37°C for 3 hr, the samples were centrifuged and supernatant was used to determine the haemolytic activity measured in terms of haemoglobin release as monitored by […]. Triton-treated control samples were diluted 10-fold before reading absorbance. […] Percent haemolysis has been expressed with reference to 100% haemolysis value assigned to positive control (triton X 100 treated RBCs). To study haemolytic susceptibility of parasitized cells, URBCs were replaced with varying percentages (10% and 20%) of mixed stage parasitized cells. […] Haemolysis of parasitized erythrocytes was also monitored microscopically by examining the Giemsa-stained smears. Parasitaemia of ΔFd treated and untreated cultures were microscopically counted for ring, trophozoite and schizont stages respectively. Susceptibility of different stages was compared with corresponding untreated control cultures.

[3] = test system: P. falciparum Dd2 (CQ-resistant); test: microbe, parasite or virus in culture; type: cell-based, Plasmodium falciparum; conditions: for Resistance index IC50 Dd2/ IC50 3D7: IC50 CQ resistant strain/ IC50 CQ sensitive strain
Method: as §1, §2, §3

[4] = test system: P. falciparum 3D7 (chloroquine-sensitive); test: microbe, parasite or virus in culture; type: cell-based, Plasmodium falciparum; remark: listed apart in the source
[5] = test system: Plasmodium-infected RBCs (PRBC); test: Fluorescence microscopy of FITC-peptide localization; type: cell-based, Plasmodium falciparum; conditions: 2-3 μM, 30 min, 37°C, complete medium
Method: For studying peptide localization, P. falciparum cultures were individually incubated with FITC-ΔFd (2 μM), FITC-(ΔFm)2 (2 μM) or FITC-Insulin (3 μM) a) alone and b) together with DAPI in complete medium at 37°C for 30 min and the cells were spin washed (1,600 RPM, 5 min) twice with 1 X PBS to reduce background fluorescence. The cells were smeared on a glass slide, and fluorescence was visualized by using the respective filter settings for FITC and DAPI.
For studying the selectivity and route of transport of ΔFd into the red cell-resident malaria parasite, URBC and PRBC were incubated with FITC-ΔFd (4 μM) in parallel sets at 4°C vs at room temperature (25°C) for specified times and spin washed (1,600 RPM, 2 min) with complete medium (3 X 200 μl). The cells were smeared on a glass slide and both bright field images and fluorescence images (using FITC filter) were captured at 100 X magnification using Nikon eclipse fluorescence microscope. The software Adobe Photoshop was used to overlay the fluorescence image on the bright field image.

[6] = test system: infected erythrocytes (PRBC); test: Haemolysis assay, parasitized red cells; type: cell-based, Plasmodium falciparum; conditions: up to 40 μM, 3 hr, A415
Method: as §4

[7] = 3D7 (chloroquine-sensitive, 48 h)
[8] = ring stage synchronized, haematocrit 2%, parasitaemia 1%, 48 hr, SYBR Green I fluorescence, ± SD of three independent observations, read-out: IC50 P. falciparum 3D7
[9] = 2% haematocrit in PBS, 37°C, 3 hr, haemoglobin release A415, 100% = 0.4% Triton X-100, ± SD of three independent observations

Row | Compound | IC50 [1, 7] [µM] | HC50 URBC ([2]; 3 h) [µM] | Hemolytic Selectivity index (HC50 URBC/ IC50 Pf 3D7) ([2]; 3 h) | IC50 ([3]; Dd2 (CQ-resistant, 48 h)) [µM] | other results
1 | CC(=O)NCC(=O)N[C@@H](Cc1ccccc1)C(=O)N[C@@H](CCCNC(=N)N)C(=O)N[C@@H](CCCCN)C(=O)N[C@@H](Cc1ccccc1)C(=O)N[C@@H](Cc1c[nH]cn1)C(=O)N[C@@H](CCCCN)C(=O)N[C@@H](Cc1ccccc1)C(=O)N[C@@H](Cc1c[nH]c2ccccc12)C(=O)N[C@@H](C)C(=O)NCCCC[C@H](NC(=O)[C@H](C)NC(=O)[C@H](Cc1c[nH]c2ccccc12)NC(=O)[C@H](Cc1ccccc1)NC(=O)[C@H](CCCCN)NC(=O)[C@H](Cc1c[nH]cn1)NC(=O)[C@H](Cc1ccccc1)NC(=O)[C@H](CCCCN)NC(=O)[C@H](CCCNC(=N)N)NC(=O)[C@H](Cc1ccccc1)NC(=O)CNC(C)=O)C(N)=O [Fd] (I: Ac-GFRKFHKFWAK-NH2 / II: Ac-GFRKFHKFWA; amide I:11-II:C; N-terminus and C-terminus assumed) | 1.5 ± 0.08 | > 50 | > 33 |  | 
2 | CC(=O)NCC(=O)N[C@@H](Cc1ccccc1)C(=O)N[C@@H](CCCNC(=N)N)C(=O)N[C@@H](CCCCN)C(=O)N[C@@H](Cc1ccccc1)C(=O)N[C@@H](Cc1c[nH]cn1)C(=O)N[C@@H](CCCCN)C(=O)N[C@@H](Cc1ccccc1)C(=O)N[C@@H](Cc1c[nH]c2ccccc12)C(=O)N[C@@H](C)C(N)=O [Fm] (Ac-GFRKFHKFWA-NH2) | > 100 | >100 |  | > 100 | 
3 | CCN(CC)CCCC(C)Nc1ccnc2cc(Cl)ccc12 (stereo not drawn) [Chloroquine, reference compound] |  |  |  |  | IC50 ([4]; Plasmodium falciparum, 3D7, 48 h, read-out: IC50 P. falciparum 3D7): 0.04 µM; Resistance index IC50 Dd2/ IC50 3D7 [3]: 4; IC50 ([3]; Plasmodium falciparum, DD2, 48 h, read-out: IC50 P. falciparum Dd2): 0.16 µM
4 | I: Ac-G[X1]RK[X1]HK[X1]WAKK-NH2 / II: Ac-G[X1]RK[X1]HK[X1]WAK / III: Ac-G[X1]RK[X1]HK[X1]WA / IV: Ac-G[X1]RK[X1]HK[X1]WA (amide I:11-IV:C, I:12-II:C, II:11-III:C; N-terminus and C-terminus assumed) [ΔFq] | 0.25 ± 0.02 | 2.5 ± 0.13 | 10 |  | 
5 | CC(=O)NCC(=O)NC(=Cc1ccccc1)C(=O)N[C@@H](CCCNC(=N)N)C(=O)N[C@@H](CCCCN)C(=O)NC(=Cc1ccccc1)C(=O)N[C@@H](Cc1c[nH]cn1)C(=O)N[C@@H](CCCCN)C(=O)NC(=Cc1ccccc1)C(=O)N[C@@H](Cc1c[nH]c2ccccc12)C(=O)N[C@@H](C)C(=O)N[C@@H](C)C(=O)NCC(=O)NC(=Cc1ccccc1)C(=O)N[C@@H](CCCNC(=N)N)C(=O)N[C@@H](CCCCN)C(=O)NC(=Cc1ccccc1)C(=O)N[C@@H](Cc1c[nH]cn1)C(=O)N[C@@H](CCCCN)C(=O)NC(=Cc1ccccc1)C(=O)N[C@@H](Cc1c[nH]c2ccccc12)C(=O)N[C@@H](C)C(N)=O [(ΔFm)2] (Ac-G[X2]RK[X2]HK[X2]WAAG[X2]RK[X2]HK[X2]WA-NH2) | 2.4 ± 0.15 | > 50 | > 20 | 2.5 ± 0.13 | increment in potency at 96 hr (two cycles) vs 48 hr (one cycle) ([4]; P. falciparum 3D7, SYBR Green assay): 1.5 fold; Resistance index IC50 Dd2/ IC50 3D7 [3]: 1.04
6 | CC(=O)NCC(=O)NC(=Cc1ccccc1)C(=O)N[C@@H](CCCNC(=N)N)C(=O)N[C@@H](CCCCN)C(=O)NC(=Cc1ccccc1)C(=O)N[C@@H](Cc1c[nH]cn1)C(=O)N[C@@H](CCCCN)C(=O)NC(=Cc1ccccc1)C(=O)N[C@@H](Cc1c[nH]c2ccccc12)C(=O)N[C@@H](C)C(N)=O [ΔFm] (Ac-G[X2]RK[X2]HK[X2]WA-NH2) | > 100 | >100 |  | > 100 | 
7 | C[C@H](NC(=O)[C@H](C)NC(=O)[C@H](CCCCN)NC(=O)[C@H](Cc1c[nH]cn1)NC(=O)[C@@H]1CCCN1C(=O)[C@H](CCC(=O)O)NC(=O)[C@@H](N)CCC(=O)O)C(=O)N[C@@H](CO)C(=O)N[C@@H](C)C(=O)N[C@@H](CCC(=O)O)C(=O)NCC(=O)N[C@@H](CCCCN)C(=O)N[C@@H](CCCCN)C(=O)O [Prochitinase, reference compound] (H-EEPHKAASAEGKK-OH) | > 40 | > 40 |  |  | 
8 | FITC-insulin: FITC-Insulin (Sigma), control for uptake |  |  |  |  | uptake of FITC-labelled peptide by parasitized cells [5]: no accumulation
9 | Insulin: bovine insulin (Sigma), control peptide [reference compound] |  |  |  |  | haemolysis of infected red cells by control peptides [6]: not to show any haemolysis; IC50 [1, 8]: > 40 µM; HC50 URBC [2, 9]: > 40 µM
10 | CC(C)C[C@H](NC(=O)[C@H](CCC(N)=O)NC(=O)[C@@H]1CCCN1C(=O)[C@H](CC(C)C)NC(=O)[C@H](CC(=O)O)NC(=O)[C@@H](NC(=O)[C@@H](NC(=O)[C@H](Cc1c[nH]cn1)NC(=O)[C@@H]1CCCN1C(=O)[C@H](CC(C)C)NC(=O)[C@@H]1CCCN1C(=O)[C@@H]1CCCN1C(=O)[C@H](C)NC(=O)[C@H](CO)NC(=O)[C@@H]1CCCN1C(=O)[C@H](CCCNC(=N)N)NC(=O)[C@@H](NC(=O)[C@H](C)NC(=O)CNC(=O)[C@H](CC(C)C)NC(=O)[C@@H]1CCCN1C(=O)[C@H](C)NC(=O)[C@H](CO)NC(=O)[C@H](Cc1c[nH]cn1)NC(=O)[C@H](CC(=O)O)NC(=O)[C@@H]1CCCN1C(=O)[C@@H]1CCCN1C(=O)[C@@H](N)CC(N)=O)[C@@H](C)O)C(C)C)C(C)C)C(=O)NCC(=O)N1CCC[C@H]1C(=O)O [E30, reference compound] (H-NPPDHSAPLGATRPSAPPLPHVVDLPQLGP-OH) |  |  |  |  | haemolysis of infected red cells by control peptides [6]: not to show any haemolysis; IC50 [1, 8]: > 40 µM; HC50 URBC [2, 9]: > 40 µM
